The text below walks through data of article PMC10525924, “Engineering and Purification of Microcin C7 Variants Resistant to Trypsin and Analysis of Their Biological Activity” (Antibiotics, 2023).

Entries after “also recorded” stand apart in the source; their conditions may differ. Where a SMILES comes first, the peptide text is derived from it. Where no end group is shown, it is not given here.

As usually defined, the amount remaining is the share of the starting amount still present when the sample was taken.

The subject of one data set is indicator bacteria. The following applies: second to seventh codons of mccA replaced; cited from earlier work. An excerpt: The heptapeptide precursor of McC, f-MRTGNAN, is encoded by the first gene in the mcc gene clusters, mccA [11]. Considering its protein nature, it is suitable for gene-based peptide engineering. Kazakov et al. first applied site-directed mutagenesis on the mccA gene, systematically replacing the second to seventh codons of mccA encoding 19 standard amino acids for a total of 114 mutations.

The test system of a further data set is pepsin. Description: Remaining amount by RP-HPLC after pepsin treatment. The class given is in vitro ADME. The following applies: pepsin (isolated protease); pepsin treated for 3 h; read-out RP-HPLC; Table S2.
The test system of the next data set is E. coli K88. Briefly: microbe, parasite or virus in culture. Conditions: agar diffusion, fermentation supernatant, not trypsin-treated. It is filed as cell-based. (In general: A growth-free zone around the sample is the usual read-out of agar diffusion tests.)
Data set [1] concerns chymotrypsin. Briefly: Remaining amount by RP-HPLC after chymotrypsin treatment. It is filed as in vitro ADME. Conditions: chymotrypsin (isolated protease); chymotrypsin treated for 3 h; read-out RP-HPLC; Table S2.
The subject of a further data set is trypsin. Briefly: Remaining amount by RP-HPLC after trypsin treatment. Conditions: trypsin treatment 3 h. On the procedure:
To test whether the variants were tolerant to trypsin or other digestive enzymes, the amount of the remaining McC and its analogues remaining was determined by RP-HPLC after trypsin, pepsin, and chymotrypsin treated for 3 h (Table S2), and the inhibition zones of trypsin-treated variants were tested using the same method (Table 2).
The fermentation broth was collected via centrifugation at 12,000× g at 4 °C for 10 min; the supernatants contained the McC variants. The supernatants and trypsin were mixed at a ratio of 9:1 (v/v; the final concentration of trypsin was 50 μg/mL) and incubated in a bath at 37 °C for 3 h. The pH was adjusted to 6.8. The pH value of the fermentation broth was measured before and after treatment, and an approximate pH value of 7 was considered normal.

The conditions of data set [2]: cited from earlier work. The source says:
(§1) The McC as a new generation of antimicrobials is now receiving increased attention because of its antimicrobial activity against a wide range of Gram-negative bacteria, including Escherichia, Klebsiella, Salmonella, Shigella, and Proteus species. However, […] proteolytic enzymes in the stomach and the small intestine, such as pepsin, trypsin, and chymotrypsin, need to be considered before the application of McC or other microcins in different fields.

Data set [3] concerns chymotrypsin. The following applies: cited from earlier work.
Excerpt: as §1

With `CSCC[C@H](NC=O)C(=O)N[C@@H](Cc1c[nH]c2ccccc12)C(=O)N[C@H](C(=O)NCC(=O)N[C@@H](CC(N)=O)C(=O)N[C@@H](C)C(=O)N[C@@H](CC(=O)O)C(=O)NP(=O)(OCCCN)OC[C@H]1O[C@@H](n2cnc3c(N)ncnc32)[C@H](O)[C@@H]1O)[C@@H](C)O` (stereo partly shown) [R2W] (HELM PEPTIDE1{[O=C[*:2]].M.W.T.G.N.A.[NCCCOP(=O)(NC(=O)[C@H](CC(=O)O)N[*:1])OC[C@H]1O[C@@H](n2cnc3c(N)ncnc32)[C@H](O)[C@@H]1O]}$$$$V2.0), the “antimicrobial activity of mccA substitution variants” value in the data set on indicator bacteria is reported as “bacteriostatic”. Besides, the share remaining at 3 h stood at 91.3 ± 1.26% with pepsin and 41.3 ± 1.03% with chymotrypsin [1]. Besides, in the data set on E. coli K88, the “bacteriostatic effect on indicator strain K88” value (“bacteriostatic effect” for short) is recorded as “no bacteriostatic effects”.

For the compound MRPGNAN [T3P], the “degradation by / resistance to trypsin” value in the data set on trypsin is “no longer degraded by trypsin; also recorded: exhibited resistance to trypsin”. Also, the “bacteriostatic effect” value in the data set on E. coli K88 is given as “no bacteriostatic effects”.

Turning to `CSCC[C@H](NC=O)C(=O)N[C@@H](CCC(=O)O)C(=O)N[C@H](C(=O)NCC(=O)N[C@@H](CC(N)=O)C(=O)N[C@@H](C)C(=O)N[C@@H](CC(=O)O)C(=O)NP(=O)(OCCCN)OC[C@H]1O[C@@H](n2cnc3c(N)ncnc32)[C@H](O)[C@@H]1O)[C@@H](C)O` (stereo partly shown) [R2E] (HELM PEPTIDE1{[O=C[*:2]].M.E.T.G.N.A.[NCCCOP(=O)(NC(=O)[C@H](CC(=O)O)N[*:1])OC[C@H]1O[C@@H](n2cnc3c(N)ncnc32)[C@H](O)[C@@H]1O]}$$$$V2.0), the figures for the amount remaining at 3 h in the data set on pepsin and in the data set on chymotrypsin [1] were 90.72 ± 0.74% and 38.4 ± 0.97%, respectively. In the data set on E. coli K88, the “bacteriostatic effect” value is reported as “no bacteriostatic effects”.

Turning to `CSCC[C@H](NC=O)C(=O)N1CCC[C@H]1C(=O)N[C@H](C(=O)NCC(=O)N[C@@H](CC(N)=O)C(=O)N[C@@H](C)C(=O)N[C@@H](CC(=O)O)C(=O)NP(=O)(OCCCN)OC[C@H]1O[C@@H](n2cnc3c(N)ncnc32)[C@H](O)[C@@H]1O)[C@@H](C)O` (stereo partly shown) [R2P] (HELM PEPTIDE1{[O=C[*:2]].M.P.T.G.N.A.[NCCCOP(=O)(NC(=O)[C@H](CC(=O)O)N[*:1])OC[C@H]1O[C@@H](n2cnc3c(N)ncnc32)[C@H](O)[C@@H]1O]}$$$$V2.0), the share remaining at 3 h in the data set on pepsin amounted to 86.9 ± 1.24%; in the data set with chymotrypsin [1] it was 42.8 ± 0.76%. Moreover, the “bacteriostatic effect” value with E. coli K88 is recorded as “no bacteriostatic effects”.

Regarding `CSCC[C@H](NC=O)C(=O)N[C@@H](CS)C(=O)N[C@H](C(=O)NCC(=O)N[C@@H](CC(N)=O)C(=O)N[C@@H](C)C(=O)N[C@@H](CC(=O)O)C(=O)NP(=O)(OCCCN)OC[C@H]1O[C@@H](n2cnc3c(N)ncnc32)[C@H](O)[C@@H]1O)[C@@H](C)O` (stereo partly shown) [R2C] (HELM PEPTIDE1{[O=C[*:2]].M.C.T.G.N.A.[NCCCOP(=O)(NC(=O)[C@H](CC(=O)O)N[*:1])OC[C@H]1O[C@@H](n2cnc3c(N)ncnc32)[C@H](O)[C@@H]1O]}$$$$V2.0), the amount remaining at 3 h with pepsin was 82.5 ± 0.98%; with chymotrypsin [1], 40.9 ± 1.22%. In addition, the “bacteriostatic effect” value with E. coli K88 was “no bacteriostatic effects”.

In the case of “microcin J25 (GGAGHVPEYFVGIGTPISFYG; ends and bridges not checked; UniProt Q9X2V7 38-58, looked up) [microcin studied by Yu et al]”, the “stability in the gastrointestinal tract” value in data set [2] was “stable”. For the same compound, the “degradation upon exposure to chymotrypsin” value in the data set with chymotrypsin [3] is “completely degraded”.

Turning to MRPTGNAN, the “degradation by / resistance to trypsin” value in the data set with trypsin was “no longer degraded by trypsin; also recorded: exhibited resistance to trypsin”. In addition, in the data set on E. coli K88, the “bacteriostatic effect” value is “no bacteriostatic effects”.
